Assays:
[1] = target: T1, ALK2 R206H (GST-tagged mutant ALK2) (Homo sapiens, UniProt Q04771, R206H); assay: ALK binding assay (LANTHASCREEN TR-FRET competitive binding, displacement of Kinase Tracer 178); details: ALK2 R206H, LANTHASCREEN TR-FRET competitive binding; read-out: Binding Assay (IC50)
T1 construct: purchased Carna Bioscience or ThermoFisher 09-148 or PV6232
T1 sequence (Q04771 21-509 R206H): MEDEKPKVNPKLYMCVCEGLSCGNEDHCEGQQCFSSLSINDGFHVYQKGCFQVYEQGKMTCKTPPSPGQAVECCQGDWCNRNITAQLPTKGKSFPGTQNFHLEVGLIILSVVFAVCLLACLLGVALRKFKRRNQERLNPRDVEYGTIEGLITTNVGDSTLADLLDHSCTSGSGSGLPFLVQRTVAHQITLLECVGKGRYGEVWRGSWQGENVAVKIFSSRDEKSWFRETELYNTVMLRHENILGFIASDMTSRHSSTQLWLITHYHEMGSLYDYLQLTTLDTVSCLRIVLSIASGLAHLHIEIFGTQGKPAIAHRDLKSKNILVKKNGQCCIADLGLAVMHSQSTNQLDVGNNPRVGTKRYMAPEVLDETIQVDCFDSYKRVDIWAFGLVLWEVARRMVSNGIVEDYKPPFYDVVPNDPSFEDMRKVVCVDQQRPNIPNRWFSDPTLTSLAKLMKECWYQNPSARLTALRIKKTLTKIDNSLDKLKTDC

human ALK2 R206H = target: T2, human ALK2 R206H (Homo sapiens, UniProt Q04771, R206H); assay: Cell-based ALK2-R206H cell activity assay (Smad1-Ser463/Ser465 phosphorylation by AlphaLISA in HEK293-ALK2-R206H cells); details: read-out: Cell Line (Cell Assay IC50)
T2 construct: expressed in transfected cells; host or cells: HEK293 (ATCC CRL1573), lentivirus transduction, blasticidin selection
T2 sequence (Q04771 21-509 R206H): T1 sequence (Q04771 21-509 R206H)
Method: A HEK293 (ATCC, Cat^# CRL1573) based stable cell line expressing human ALK2 R206H cDNA (synthesized by GeneScript, Piscataway, N.J.) and a FLAG tag at the C-terminus was generated by lentivirus transduction and subsequent blasticidin (Life Technologies, Cat^#-A1113902) selection at 10 μg/ml for >2 wks. This cell line was named HEK293-ALK2-R206H.
Test compounds were first diluted to 4 mM or 0.4 mM and then serially diluted 3-fold into 10 different concentrations using DMSO. […] Two μl of the diluted compounds were then dispensed into the HEK293-ALK2-R206H cell-containing wells of the microplates in duplicates. In this way, each compound was tested in 10 doses (3-fold serial dilution with the top concentration being 10 μM or 1 μM). Liquid handling was achieved using a Bravo Automated Liquid Handling Platform (Agilent Technologies). DMSO without compound was used as a negative control. The positive control was 1 μM LDN193189, a known bone morphogenetic protein (BMP inhibitor).
The 10-point dose response curve was used to calculate the IC50 values.
Blank values in the table indicate that the particular compound was not tested in this assay.

IC50 [1] [nM]	IC50 (human ALK2 R206H) [nM]	SMILES
< 10	100 to 500	CC(C)N1C[C@@H](c2ccc(-c3cc4c(N5CCN(C(=O)C6CC6)CC5)ccnn4c3)cc2)C[C@@H]1C [Compound 508]
< 10	100 to 500	CCN1CCC(c2ccc(-c3cc4c(N5CCN(C(=O)N6CCCC6)CC5)ccnn4c3)cc2)CC1 [Compound 317]
< 10	< 100	CC(C)N1CCC[C@H]1c1ccc(-c2cc3c(N4CCN(C(=O)C5CC5)CC4)ccnn3c2)cn1 [Compound 484]
< 10	< 100	CC(C)N1CCC[C@@H]1c1ccc(-c2cc3c(N4CCN(C(=O)C5CC5)CC4)ccnn3c2)cn1 [Compound 487]
< 10	100 to 500	O=C(C1CC1)N1CCN(c2ccnn3cc(-c4cnn(C5CCNCC5)c4)cc23)CC1 [Compound 117]
< 10	< 100	O=C([C@H]1C[C@@H]1F)N1CCN(c2ccnn3cc(-c4ccc(N5CCNCC5)cc4)cc23)CC1 [Compound 184]
< 10	< 100	O=C(OC1COC1)N1CCN(c2ccnn3cc(-c4ccc(C5(C(F)(F)F)CCNCC5)cc4)cc23)CC1 [Compound 843]
< 10	< 100	CC(C)N1CCC(c2ccc(-c3cc4c(N5CCN(C(=O)C6CC6)CC5)ccnn4c3)cc2)CC1 [Compound 246]
< 10	< 100	O=C(C1CC1)N1CCN(c2ccnn3cc(-c4ccc(OC5CCNC5)cc4)cc23)CC1 (stereo not drawn) [Compound 133]
< 10	< 100	O=C(OC1COC1)N1CCN(c2ccnn3cc(-c4ccc([C@@]5(F)CCCNC5)cc4)cc23)CC1 [Compound 559]
< 10	< 100	CC(C)NC(C)(CO)c1ccc(-c2cc3c(N4CCN(C(=O)C5CC5)CC4)ccnn3c2)cc1 (stereo not drawn) [Compound 493]
10 to 50	100 to 500	CCN1CCN(c2ccc(-c3cc4c(N5CCN(C(=O)N6CCCC6)CC5)ccnn4c3)cc2)CC1 [Compound 327]
< 10	< 100	CCOC1(c2ccc(-c3cc4c(N5CCN(C(=O)O[C@@H]6CCOC6)CC5)ccnn4c3)nc2)CCN(C(C)C)CC1 [Compound 876]
< 10	100 to 500	CCNC(=O)N1CCN(c2ccnn3cc(-c4ccc([C@H]5CCCN5)nc4)cc23)CC1 [Compound 457]
< 10	< 100	CC(C)N1CCN(c2ccc(-c3cc4c(N5CCN(C(=O)[C@H]6C[C@H](C#N)C6)CC5)ccnn4c3)cc2)CC1 [Compound 413]
< 10	< 100	CCNC(=O)N1CCN(c2ccnn3cc(-c4ccc(C5CCN(C(C)C)CC5)cn4)cc23)CC1 [Compound 290]
< 10	< 100	CC(C)N1CCC[C@@H](c2ccc(-c3cc4c(N5CCN(C(=O)[C@H]6C[C@H](C#N)C6)CC5)ccnn4c3)cc2)C1 [Compound 408]
< 10	100 to 500	CCNC(=O)N1CCN(c2ccnn3cc(-c4ccc([C@@H]5CCCN5)nc4)cc23)CC1 [Compound 456]
< 10	< 100	CC[C@@H](C)N1CCC(c2ccc(-c3cc4c(N5CCN(C(=O)C6CC6)CC5)ccnn4c3)cc2)CC1 [Compound 563]
< 10	100 to 500	CCOC(=O)N1CCN(c2ccnn3cc(-c4ccc([C@@H]5CCCN(C(C)C)C5)cc4)cc23)C[C@H]1C [Compound 586]

IC50 [1] [nM]	IC50 (human ALK2 R206H) [nM]	SMILES
< 10	< 100	CC(C)NC(C)(CO)c1ccc(-c2cc3c(N4CCN(C(=O)OC5COC5)CC4)ccnn3c2)cc1 (stereo not drawn) [Compound 804]
< 10	100 to 500	CC(C)NC(=O)N1CCN(c2ccnn3cc(-c4ccc([C@H]5CCCN5)cn4)cc23)CC1 [Compound 467]
< 10	< 100	CC(C)N1CCC[C@H](c2ccc(-c3cc4c(N5CCN(C(=O)OC6COC6)CC5)ccnn4c3)cc2F)C1 [Compound 693]
< 10	< 100	[2H]C1(OC(=O)N2CCN(c3ccnn4cc(-c5ccc(C6CCN(C(C)C)CC6)cc5)cc34)CC2)COC1 [Compound 814]
< 10	100 to 500	COC(=O)N1CCN(c2ccnn3cc(-c4ccc(C5CCN(C(C)C)CC5)cc4)cc23)CC1 [Compound 232]
< 10	< 100	CC(C)N1CC[C@@H](OC(F)F)[C@H](c2ccc(-c3cc4c(N5CCN(C(=O)OC6COC6)CC5)ccnn4c3)cc2)C1 [Compound 889]
< 10	100 to 500	CC(C)N1CCC(c2ccc(-c3cc4c(N5CCN(C(=O)OCC6CC6)CC5)ccnn4c3)cc2)CC1 [Compound 386]
< 10	< 100	CCNC(=O)N1CCN(c2ccnn3cc(-c4ccc([C@H]5CCN(C(C)C)C5)cn4)cc23)CC1 [Compound 496]
< 10	< 100	CCN1CCC(c2ccc(-c3cc4c(N5CCN(C(=O)N6CC(O)C6)CC5)ccnn4c3)cc2)CC1 [Compound 337]
< 10	< 100	CCOC(=O)N1CCN(c2ccnn3cc(-c4ccc(C5CCN(C(C)C)CC5)cc4)cc23)CC1 [Compound 534]
< 10	< 100	CCNC(=O)N1CCN(c2ccnn3cc(-c4ccc([C@@H]5CCCN(C(C)C)C5)cn4)cc23)CC1 [Compound 538]
< 10	< 100	O=C(C1CC1)N1CCN(c2ccnn3cc(-c4ccc(O[C@H]5CCCNC5)cc4)cc23)CC1 [Compound 163]
< 10	< 100	CC(C)N1CC[C@H](c2ccc(-c3cc4c(N5CCN(C(=O)C6CC6)CC5)ccnn4c3)cc2F)C1 [Compound 284]
< 10	< 100	COC1(c2ccc(-c3cc4c(N5CCN(C(=O)NC(C)C)CC5)ccnn4c3)cc2)CN(C(C)C)C1 [Compound 593]
< 10	< 100	CCO[C@]1(c2ccc(-c3cc4c(N5CCN(C(=O)NC(C)C)CC5)ccnn4c3)cc2)CCN(C(C)C)C1 [Compound 676]
10 to 50	100 to 500	CCN1CC[C@H](c2ccc(-c3cc4c(N5CCN(C(=O)C6CC6)CC5)ccnn4c3)cc2)C(F)C1 (stereo partly drawn) [Compound 279]
< 10	< 100	CCN1CCC(c2ccc(-c3cc4c(N5CCN(C(=O)N6CC(C#N)C6)[C@H](C)C5)ccnn4c3)cc2)CC1 [Compound 412]
< 10	< 100	CC(C)[C@@H](C)NC(=O)N1CCN(c2ccnn3cc(-c4ccc(C5CCN(C(C)C)CC5)cc4)cc23)CC1 [Compound 663]
< 10	< 100	CC(C)N1CCC[C@H](c2ccc(-c3cc4c(N5CCN(C(=O)OC6COC6)CC5)ccnn4c3)cc2)C1 [Compound 630]

SMILES	IC50 [1] [nM]	IC50 (human ALK2 R206H) [nM]
COC[C@@H](C)N1CCC(OC)(c2ccc(-c3cc4c(N5CCN(C(=O)NC(C)C)CC5)ccnn4c3)nc2)CC1 [Compound 735]	< 10	< 100
CC(C)NC(=O)N1CCN(c2ccnn3cc(-c4ccc(C5(C(F)(F)F)CCN(C(C)C)CC5)cc4)cc23)CC1 [Compound 738]	< 10	< 100
CCOC(=O)N1CCN(c2ccnn3cc(-c4ccc(C5(OC)CCN(C(C)C)CC5)cn4)cc23)CC1 [Compound 820]	< 10	< 100
CCOC1(c2ccc(-c3cc4c(N5CCN(C(=O)NC(C)C)CC5)ccnn4c3)nc2)CCN(C(C)C)CC1 [Compound 715]	< 10	< 100
COC[C@@H](C)N1CCC(OC)(c2ccc(-c3cc4c(N5CCN(C(=O)[C@H]6C[C@H](C#N)C6)CC5)ccnn4c3)nc2)CC1 [Compound 749]	< 10	< 100
CC(C)N1CCC(O)(c2ccc(-c3cc4c(N5CCN(C(=O)C6CC6)CC5)ccnn4c3)cc2)CC1 [Compound 324]	< 10	< 100
COC1(c2ccc(-c3cc4c(N5CCN(C(=O)OC6COC6)CC5)ccnn4c3)nc2)CCN(C(C)C)CC1 [Compound 846]	< 10	< 100
CC(C)N1CCC(c2ccc(-c3cc4c(N5CCN(C(=O)OC6COC6)CC5)ccnn4c3)cc2)(C(F)(F)F)CC1 [Compound 747]	< 10	< 100
COC1(c2ccc(-c3cc4c(N5CCN(C(=O)OC(C)C)CC5)ccnn4c3)cc2)CCN(C(C)C)CC1 [Compound 685]	< 10	< 100

From patent US10233186B2, “Inhibitors of activin receptor-like kinase” (BLUEPRINT MEDICINES CORPORATION, priority 2016, dated 2019)
